From patent US20090017010A1, “NOVEL ARTEMIS/DNA-DEPENDENT PROTEIN KINASE COMPLEX AND METHODS OF USE THEREOF” (University of Southern California, priority 2002, published 2009)
Values belong to the compound of their own block, whether it stands above or below them.

Columns and labels:
[1] = biological target: T1, Artemis:DNA-PKcs complex (Homo sapiens, UniProt P78527); assay: In vitro nuclease assay: effect of a DNA-PKcs inhibitor and of ATP analogs on hairpin opening; assay type: biochemical; conditions: for effect of DNA-PKcs (conferring hairpin opening activity on Artemis) when analog is used instead of ATP: 1 mM ATP analog, DFL16.1 hairpin, FIG. 5B lanes 5, 6
T1 construct: Native DNA-PKcs was purified as described (Chan et al., 1996) except that HeLa cells were used as the source; made in house; host or cells: Artemis-myc-His: transfected 293T cells (Ni-NTA, then anti-myc immunobeads); DNA-PKcs: endogenous protein purified from HeLa cells
Method: (§1) Nuclease assays without RAGs were carried out in a total volume of 10 μL with a buffer composition of 25 mM Tris, pH 8.0, 10-50 mM NaCl or KCl, 10 mM MgCl2, 1 mM DTT, and 50 ng/μL of BSA unless otherwise specified. To the buffer mixture, Artemis was added to 2.75 pmol, and DNA-PKcs and Ku were added to 1.25 pmol each. 0.25 mM of ATP (or ADP, ATP-y-S, AMP-PNP) and […] of 35 bp DNA were included where DNA-PKcs was used. Reactions were incubated at 37° C. for 30 minutes. In reactions including DNA-PKcs inhibitors, reaction mixtures without the substrate were incubated on ice for 15 minutes before the addition of the substrate and the subsequent incubation at 37° C. In FIG. 7, pre-phosphorylation of Artemis-myc-His immunobeads was carried out under DNA-PK kinase assay conditions. After washing the treated immunobeads with buffer F for three times and the nuclease assay buffer for two times, the beads were used for the nuclease reactions. In the hairpin opening of RAG-generated hairpins (FIG. 8), the reactions contained 25 mM K-HEPES, pH 7.4, 50 mM KCl, 10 mM MgCl2, 1 mM DTT, 0.25 pmol of labeled 12-RSS double-stranded oligonucleotides (KY28/KY29) and an equal amount of unlabeled 23-RSS double-stranded oligonucleotides (KY36/KY37), 1 pmol of RAGs (assuming that the RAG complex consists of two RAG-1 and two RAG-2 subunits), 2 pmol of HMG1, 2.75 pmol of Artemis-myc-His, and 1.25 pmol of DNA-PKcs (with ATP and 35 bp DNA as described above). For the sequential reactions, substrates were incubated with RAG complex alone first at 37° C. for 60 minutes, extracted with or without phenol/chloroform, then Artemis-myc-His and DNA-PKcs were added, followed by another 30-minute incubation at 37° C. Reactions with the RAG complex, Artemis, and DNA-PKcs added simultaneously were incubated for 90 minutes at the same temperature. After incubation, reactions were stopped by adding an equal volume of formamide gel loading buffer and beating at 100° C. for 5 minutes. DNA was resolved on 12% denaturing polyacrylamide gels. […] Data was analyzed by ImageQuant software (v5.0). […]

[2] = test system: 20 bp hairpin (DFL16.1); assay: In vitro nuclease assay: hairpin opening by Artemis proteins; assay type: biochemical
Method: as §1

[3] = biological target: dsDNA; conditions: read-out: equilibrium binding affinity for dsDNA; cited from earlier work

T1 sequence (P78527 whole entry): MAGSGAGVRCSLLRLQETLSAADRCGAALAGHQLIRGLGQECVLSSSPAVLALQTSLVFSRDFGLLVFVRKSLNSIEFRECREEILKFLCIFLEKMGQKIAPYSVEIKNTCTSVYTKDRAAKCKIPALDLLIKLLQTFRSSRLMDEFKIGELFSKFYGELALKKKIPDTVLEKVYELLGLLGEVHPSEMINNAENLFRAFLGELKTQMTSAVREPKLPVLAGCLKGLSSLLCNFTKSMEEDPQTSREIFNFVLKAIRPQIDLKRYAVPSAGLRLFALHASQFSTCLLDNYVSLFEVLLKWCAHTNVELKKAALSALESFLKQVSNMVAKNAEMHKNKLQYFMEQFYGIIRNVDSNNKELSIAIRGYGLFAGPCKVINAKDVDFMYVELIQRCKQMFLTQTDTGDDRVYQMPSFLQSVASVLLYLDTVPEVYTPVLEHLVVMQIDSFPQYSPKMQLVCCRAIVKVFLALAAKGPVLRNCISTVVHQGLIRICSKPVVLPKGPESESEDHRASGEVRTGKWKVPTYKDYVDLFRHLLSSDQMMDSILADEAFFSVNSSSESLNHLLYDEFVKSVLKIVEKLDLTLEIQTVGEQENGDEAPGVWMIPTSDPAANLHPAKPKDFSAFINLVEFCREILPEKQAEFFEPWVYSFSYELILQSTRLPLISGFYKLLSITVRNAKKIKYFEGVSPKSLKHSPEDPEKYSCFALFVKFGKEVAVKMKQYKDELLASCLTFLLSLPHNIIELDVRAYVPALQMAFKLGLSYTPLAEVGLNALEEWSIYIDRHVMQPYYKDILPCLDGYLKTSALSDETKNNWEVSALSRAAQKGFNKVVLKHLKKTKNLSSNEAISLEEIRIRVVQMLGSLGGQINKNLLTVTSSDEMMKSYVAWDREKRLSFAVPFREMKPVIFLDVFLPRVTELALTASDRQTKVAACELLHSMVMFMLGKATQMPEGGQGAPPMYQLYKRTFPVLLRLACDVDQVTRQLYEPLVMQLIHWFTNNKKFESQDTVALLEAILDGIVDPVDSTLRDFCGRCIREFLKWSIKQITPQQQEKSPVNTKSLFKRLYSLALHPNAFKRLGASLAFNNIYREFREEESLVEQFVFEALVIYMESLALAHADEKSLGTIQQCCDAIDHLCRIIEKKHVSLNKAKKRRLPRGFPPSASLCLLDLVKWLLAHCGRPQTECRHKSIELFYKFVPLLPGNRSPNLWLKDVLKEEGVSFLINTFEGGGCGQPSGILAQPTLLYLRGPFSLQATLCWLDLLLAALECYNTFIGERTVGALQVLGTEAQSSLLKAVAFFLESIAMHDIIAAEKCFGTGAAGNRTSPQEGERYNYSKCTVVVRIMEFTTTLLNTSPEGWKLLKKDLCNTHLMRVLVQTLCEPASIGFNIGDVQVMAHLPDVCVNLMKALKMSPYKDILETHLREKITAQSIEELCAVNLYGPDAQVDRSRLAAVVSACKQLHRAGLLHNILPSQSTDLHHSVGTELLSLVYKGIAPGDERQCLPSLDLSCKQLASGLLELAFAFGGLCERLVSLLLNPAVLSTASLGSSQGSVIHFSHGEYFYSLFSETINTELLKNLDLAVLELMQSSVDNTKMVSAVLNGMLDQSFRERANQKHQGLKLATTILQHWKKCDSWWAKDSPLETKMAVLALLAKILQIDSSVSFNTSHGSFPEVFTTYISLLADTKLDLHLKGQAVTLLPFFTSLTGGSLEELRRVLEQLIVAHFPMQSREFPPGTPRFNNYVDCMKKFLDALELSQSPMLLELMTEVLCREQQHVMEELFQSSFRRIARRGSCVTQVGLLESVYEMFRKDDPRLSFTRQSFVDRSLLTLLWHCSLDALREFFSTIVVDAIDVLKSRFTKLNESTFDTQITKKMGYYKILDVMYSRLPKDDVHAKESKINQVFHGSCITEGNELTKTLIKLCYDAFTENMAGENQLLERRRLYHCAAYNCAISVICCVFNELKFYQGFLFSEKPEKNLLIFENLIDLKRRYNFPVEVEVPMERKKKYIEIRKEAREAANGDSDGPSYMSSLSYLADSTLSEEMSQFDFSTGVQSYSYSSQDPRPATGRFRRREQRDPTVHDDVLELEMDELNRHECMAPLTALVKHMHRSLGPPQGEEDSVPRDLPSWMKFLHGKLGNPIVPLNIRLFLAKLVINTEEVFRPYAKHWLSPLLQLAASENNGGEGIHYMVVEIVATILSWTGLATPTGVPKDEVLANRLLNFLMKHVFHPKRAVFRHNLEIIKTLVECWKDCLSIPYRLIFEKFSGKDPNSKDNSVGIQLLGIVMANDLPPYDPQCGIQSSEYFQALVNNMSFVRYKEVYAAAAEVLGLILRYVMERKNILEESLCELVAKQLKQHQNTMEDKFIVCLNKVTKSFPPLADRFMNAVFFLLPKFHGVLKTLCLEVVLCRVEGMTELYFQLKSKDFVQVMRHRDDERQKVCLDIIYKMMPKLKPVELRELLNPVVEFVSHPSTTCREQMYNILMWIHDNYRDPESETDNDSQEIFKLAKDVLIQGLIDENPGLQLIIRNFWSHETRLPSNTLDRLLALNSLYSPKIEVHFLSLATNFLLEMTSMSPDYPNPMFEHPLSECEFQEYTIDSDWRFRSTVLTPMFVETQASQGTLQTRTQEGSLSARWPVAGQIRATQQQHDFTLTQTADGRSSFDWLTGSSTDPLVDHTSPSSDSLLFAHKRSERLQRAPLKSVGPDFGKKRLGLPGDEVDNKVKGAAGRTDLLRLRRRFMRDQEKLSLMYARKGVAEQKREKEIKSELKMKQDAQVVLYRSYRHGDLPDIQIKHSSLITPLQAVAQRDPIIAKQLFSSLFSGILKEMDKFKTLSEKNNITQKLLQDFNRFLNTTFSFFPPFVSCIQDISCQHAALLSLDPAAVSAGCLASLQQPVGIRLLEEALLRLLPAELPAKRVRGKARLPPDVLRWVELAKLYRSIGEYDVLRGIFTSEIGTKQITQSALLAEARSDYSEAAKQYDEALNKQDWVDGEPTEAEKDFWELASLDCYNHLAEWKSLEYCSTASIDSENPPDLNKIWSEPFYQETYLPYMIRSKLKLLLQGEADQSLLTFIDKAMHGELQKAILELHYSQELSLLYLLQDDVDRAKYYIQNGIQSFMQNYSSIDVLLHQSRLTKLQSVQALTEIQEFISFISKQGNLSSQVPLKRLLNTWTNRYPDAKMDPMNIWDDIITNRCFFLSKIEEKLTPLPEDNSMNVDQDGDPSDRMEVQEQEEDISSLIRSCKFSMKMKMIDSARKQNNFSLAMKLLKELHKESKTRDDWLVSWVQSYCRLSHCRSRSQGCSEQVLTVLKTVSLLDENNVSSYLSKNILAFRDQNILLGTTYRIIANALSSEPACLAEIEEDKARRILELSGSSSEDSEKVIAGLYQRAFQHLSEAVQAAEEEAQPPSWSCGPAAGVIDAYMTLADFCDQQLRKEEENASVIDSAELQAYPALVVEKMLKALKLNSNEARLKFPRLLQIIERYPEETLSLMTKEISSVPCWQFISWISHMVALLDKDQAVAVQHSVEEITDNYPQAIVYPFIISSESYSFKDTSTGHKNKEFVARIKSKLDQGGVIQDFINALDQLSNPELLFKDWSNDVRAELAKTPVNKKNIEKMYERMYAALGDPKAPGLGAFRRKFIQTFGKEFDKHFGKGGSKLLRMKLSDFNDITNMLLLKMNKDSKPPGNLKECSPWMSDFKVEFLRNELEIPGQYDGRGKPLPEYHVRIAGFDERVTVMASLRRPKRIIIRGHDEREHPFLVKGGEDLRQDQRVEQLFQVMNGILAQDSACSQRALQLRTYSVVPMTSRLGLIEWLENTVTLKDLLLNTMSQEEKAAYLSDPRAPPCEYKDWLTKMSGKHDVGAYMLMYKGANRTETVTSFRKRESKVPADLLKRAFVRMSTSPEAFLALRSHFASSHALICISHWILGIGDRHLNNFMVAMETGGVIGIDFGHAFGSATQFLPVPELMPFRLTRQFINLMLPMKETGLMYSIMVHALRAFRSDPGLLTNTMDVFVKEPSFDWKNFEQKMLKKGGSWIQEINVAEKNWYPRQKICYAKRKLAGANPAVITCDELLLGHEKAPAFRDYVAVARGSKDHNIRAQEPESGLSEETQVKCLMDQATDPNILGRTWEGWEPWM
T1 sequence (Q96SD1 whole entry partner): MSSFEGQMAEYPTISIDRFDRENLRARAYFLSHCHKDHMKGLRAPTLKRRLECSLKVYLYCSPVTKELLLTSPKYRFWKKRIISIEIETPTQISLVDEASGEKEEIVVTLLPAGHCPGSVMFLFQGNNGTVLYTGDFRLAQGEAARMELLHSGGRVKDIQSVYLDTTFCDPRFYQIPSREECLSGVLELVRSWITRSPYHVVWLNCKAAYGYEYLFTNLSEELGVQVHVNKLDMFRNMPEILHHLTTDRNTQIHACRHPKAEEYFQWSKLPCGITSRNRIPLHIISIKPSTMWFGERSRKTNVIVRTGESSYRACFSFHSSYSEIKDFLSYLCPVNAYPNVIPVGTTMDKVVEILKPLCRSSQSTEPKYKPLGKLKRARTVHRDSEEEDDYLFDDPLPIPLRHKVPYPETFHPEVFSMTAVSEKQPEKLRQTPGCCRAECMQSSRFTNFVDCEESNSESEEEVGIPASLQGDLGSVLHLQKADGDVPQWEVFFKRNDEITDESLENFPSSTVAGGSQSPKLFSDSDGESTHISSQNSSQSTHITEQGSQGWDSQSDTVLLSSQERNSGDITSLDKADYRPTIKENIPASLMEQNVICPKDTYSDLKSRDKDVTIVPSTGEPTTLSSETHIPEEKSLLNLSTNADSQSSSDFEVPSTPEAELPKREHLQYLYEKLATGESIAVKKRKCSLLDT

Compound: Artemis: full-length human Artemis with C-terminal myc-His tag, expressed in 293T cells, used on immunobeads as the enzyme
- hairpin opening ([2]; Artemis alone, without DNA-PKcs, FIG. 5A lane 2): No hairpin opening
- hairpins opened during the time interval ([2]; with DNA-PKcs present, 37° C., 30 minutes, FIG. 5A lanes 4-6, said to be probably an underestimation): about 40%

Compound: D165N: D165N point mutant of Artemis, same expression vector as wild type
- hairpin opening activity ([2]; in the presence of DNA-PKcs): lacks any hairpin opening activity

Compound: DNA-PKcs: native catalytic subunit of DNA-dependent protein kinase, 469 kDa, purified from HeLa cells
- Kd [3]: ~1 nM

Other lines, results leading:

- endonucleolytic activity on hairpins and 5′ ends, relative to ATP ([1]; ADP instead of ATP, 20 bp artificial GC hairpin with 6-nucleotide 5′ overhang, FIG. 7 lane 3): lower level of endonucleolytic activity
Compound: Nc1ncnc2c1ncn2[C@@H]1O[C@H](COP(=O)(O)OP(=O)(O)O)[C@@H](O)[C@H]1O [ADP]

- effect of DNA-PKcs (conferring hairpin opening activity on Artemis) when analog is used instead of ATP [1]: largely suppressed
Compound: Nc1ncnc2c1ncn2[C@@H]1O[C@H](COP(=O)(O)OP(=O)(O)NP(=O)(O)O)[C@@H](O)[C@H]1O [AMP-PNP]

- effect of DNA-PKcs (conferring hairpin opening activity on Artemis) when analog is used instead of ATP [1]: largely suppressed
Compound: Nc1ncnc2c1ncn2[C@@H]1O[C@H](COP(=O)(O)OP(=O)(O)OP(O)(O)=S)[C@@H](O)[C@H]1O [ATP-γ-S]
